This is an account of results in patent US20110098255A1, “COMBINATION OF A PARP INHIBITOR AND AN AKT KINASE ACTIVATING COMPOUND” (priority 2008, published 2011).

For assay [1], the system named is cuprisone induced changes in the central nervous system of C57BL/6 mice (corpus callosum demyelinization). In words: Cuprizone induced demyelinization determined with MRI (CC/control tube intensity). Format: in vivo. Particulars: cuprizone-treated mice, after 5 weeks of treatment, i.p. Here is the method: (§1) During the experiment C57BL/6 mice were kept in a standard environment, they were given tap water and ground mice feed ad libitum. The mice were taken care of according to ethical requirements relating to treatment of animals.
(§2) According to a previously described method [Journal of Neuroimmunology 92 (1998): 38-49], 7-8 week old C57BL/6 male mice were treated for 6 weeks per os with cuprizone (Sigma, Steinheim, Germany). The mice were divided into 5 groups with 8 mice in each group.
(§3) Oxidation of cuprizone was prevented by giving fresh feed to the mice every day. PARP inhibitors and/or Akt kinase activating agents were placed in physiological saline solution, filtered to sterility, and administered intraperitoneally in the proper dosage. […] Control animals were given i.p. an amount of sterile physiological solution corresponding to their bodymass.
(§4) It is known from the literature (NMR Biomed. 2005 Oct.; 18(6):395-403) that T1 and T2 MRI image intensity correlates with the degradation and regeneration of the myelin sheath in this model. Oedema and hydrocephalus registers as hyperintensity on the T2 image. For quantification of hydrocephalus MRI is more suitable than histology because during fixation and histological processing there is significant shrinkage and volume degradation (Exp. Neurology 118 (1992): 1-6). MRI micro image technique makes it possible to study the above changes in vivo for weeks.
(§5) After three weeks, the mice were placed into the NMR instrument in narcosis every week [5 mg/kg bodymass diazepam (Seduxen) and 90 mg/kg bodymass ketamine (Calypsol, Richter Gedeon Zrt., Budapest) intraperitoneally]. T1 and T2 images were acquired with Varian ^uNITYIINOVA NMR spectrometer from the bulbus olfactorius to the beginning of the spinal cord in transverse sections of 1 mm thickness. Signal intensity of a glass tube with 1 mm internal diameter, which was filled with 9:1 water-glycerin mixture, was used as outer control. The development and size of demyelinization was determined by comparing average signal intensity detected at the area of the corpus callosum with the average intensity of the outer control. Average signal intensity of the corpus callosum (CC) was determined by an expert who was blind to the experiment from the section 1 mm posterior to the bregma by manually marking the region of interest (ROI), i.e. the corpus callosum (CC). Intensity of ROI was normalized to the intensity of the control tube.

In assay [2] the test system is cuprisone induced changes in the central nervous system of C57BL/6 mice (hydrocephalus). The assay can be described thus: Cuprizone induced hydrocephalus determined with MRI (chamber/brain volume ratio). Type of assay: in vivo. Particulars: cuprizone-treated mice, after 5 weeks of treatment, i.p. Here is the method: as §1, §2, §3, §4, §5
The development and the degree of hydrocephalus were quantified by calculating the chamber/brain volume ratio. The area of the chambers was outlined manually in each section, and the whole volume was calculated as the sum of the areas multiplied with the thickness of the sections (1 mm). The same method was used for the determination of the […].

Assay [3] concerns LPS induced septic shock in normal BALB/c mice. Particulars: cited from earlier work.
Assay [4] concerns MBP induced formation of EAE in PJSJL mice. Particulars: cited from earlier work.
[5] abbreviates: Example 1, doxycycline 1 mg/kg, estriol 0,4 mg/kg bodymass.
The mark [6] stands for this setting: Example 2, doxycycline 1 mg/kg, trans-resveratrol 0,4 mg/kg bodymass.
Where [7] appears, read: Example 3, 4-HQ 20 mg/kg, trans-resveratrol 0,4 mg/kg bodymass.
Where [8] appears, read: Example 4, Carb 2 mg/kg, trans-resveratrol 0.4 mg/kg bodymass.

Regarding `C[C@H]1c2cccc(O)c2C(=O)C2=C(O)[C@]3(O)C(=O)C(C(N)=O)=C(O)[C@@H](N(C)C)[C@@H]3[C@@H](O)[C@@H]21` [doxycycline], the “CC/control tube (demyelinization)” value was 1.1 ± 0.18 in assay [1] (setting [5]) and 1.2 ± 0.17 in assay [1] (setting [6]). Besides, the “Chamber/brain vol. ratio (hydrocephalus)” value is 0.128 ± 0.012 in assay [2] (setting [5]) and 0.117 ± 0.02 in assay [2] (setting [6]).
As for `Oc1ccc(/C=C/c2cc(O)cc(O)c2)cc1` [resveratrol, trans-resveratrol], the “CC/control tube (demyelinization)” value in assay [1] (setting [6]), in assay [1] (setting [7]) and in assay [1] (setting [8]) was 1.3 ± 0.09 throughout. Also, the “Chamber/brain vol. ratio (hydrocephalus)” value in assay [2] (setting [6]), in assay [2] (setting [7]) and in assay [2] (setting [8]) was 0.138 ± 0.017 each time.
For the compound `C[C@]12CC[C@@H]3c4ccc(O)cc4CC[C@H]3[C@@H]1C[C@@H](O)[C@@H]2O` [estriol], in assay [1] (setting [5]), the “CC/control tube (demyelinization)” value was 1.2 ± 0.13. For the same compound, in assay [2] (setting [5]), the “Chamber/brain vol. ratio (hydrocephalus)” value was 0.134 ± 0.02.
With `CN(C)CC(=O)Nc1ccc2[nH]c(=O)c3ccccc3c2c1.Cl` [PJ-34, N-(6-oxo-5 ,6-dihydrophenanthridin-2-yl)-N,N-dimethylacetamide.HCl], the “prevention of LPS induced septic shock” value in assay [3] is “successful in preventing LPS induced septic shock”. In addition, in assay [4], the “MBP induced formation of EAE” value is “effectively decreased”.
